In patent publication US12338199B2, “Bis-octahydrophenanthrene carboxamides and protein conjugates thereof” (REGENERON PHARMACEUTICALS, INC., priority 2017, dated 2025):
Converted amounts (≈) assume the structure as drawn. Like-named read-outs stand apart in the source and are kept apart here.

How the values were obtained:
[1] = biological target: T1, LXR alpha (Homo sapiens, UniProt Q13133); assay: LanthaScreen TR-FRET LXR alpha Coactivator Assay (cell-free binding)
T1 construct: LXR alpha or beta LBD-GST; purchased ThermoFisher PV4655
T1 sequence (Q13133 209-447 limits assumed): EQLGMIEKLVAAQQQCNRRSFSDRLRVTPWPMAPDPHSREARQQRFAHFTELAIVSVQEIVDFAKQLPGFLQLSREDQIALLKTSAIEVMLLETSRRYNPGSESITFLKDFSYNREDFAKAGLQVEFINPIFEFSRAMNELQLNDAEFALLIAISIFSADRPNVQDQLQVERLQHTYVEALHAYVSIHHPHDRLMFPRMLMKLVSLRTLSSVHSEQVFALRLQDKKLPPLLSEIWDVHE
Procedure: (§1) To evaluate the ability of novel LXR agonists to bind to the LXR alpha and beta receptor, a cell-free binding assay was performed using a LanthaScreen TR-FRET LXR alpha Coactivator Assay Kit (ThermoFisher, Cat # PV4655) and LXR beta Coactivator Assay Kit (ThermoFisher, Cat # PV4658). The assay was performed according to the manufacturer's instructions. Briefly, a 3-fold serial dilution of LXR agonists were prepared in 100% DMSO starting at 100 μM (100× of final). Serial dilutions were further diluted 50-fold in nuclear receptor buffer F with 5 mM DTT, and transferred to a 384-well assay plate. Next, Fluorescein-D22, LXR alpha or beta LBD-GST, and Tb anti-GST antibody was sequentially added to 384-well assay plate. The plate was then incubated at rt for 2.5 hours while being protected from light. […] The IC50 values were determined using a four-parameter logistic equation over a 12-point response curve (GraphPad Prism).

[2] = biological target: T2, LXR beta (Homo sapiens, UniProt P55055); assay: LanthaScreen TR-FRET LXR beta Coactivator Assay (cell-free binding)
T2 construct: LXR alpha or beta LBD-GST; purchased ThermoFisher PV4658
T2 sequence (P55055 222-460 limits assumed): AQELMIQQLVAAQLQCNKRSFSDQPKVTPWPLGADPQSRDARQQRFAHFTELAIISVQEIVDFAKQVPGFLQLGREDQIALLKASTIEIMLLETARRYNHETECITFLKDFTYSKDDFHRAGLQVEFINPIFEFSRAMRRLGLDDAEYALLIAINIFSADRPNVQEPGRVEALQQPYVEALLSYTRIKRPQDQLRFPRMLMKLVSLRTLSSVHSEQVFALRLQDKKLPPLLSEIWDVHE
Procedure: as §1

[3] = system: THP1/LXR-Luc/Her2 cells; assay: THP1/LXR-Luc/Her2 luciferase reporter bioassay; format: cell-based; details: Homo sapiens
Source text: (§2) A bioassay was developed to assess the activity of LXR agonists after internalization of an agonist or of a ncADC into cells and binding to LXR, a nuclear receptor, using a commercially available LXR reporter (referred to as LXR-Luc) that contains the firefly luciferase gene under control by minimal CMV promoter and tandem repeats of the LXR transcriptional response element. For this assay, a THP1 cell line, which is a human monocytic leukaemia line, was engineered to express full length human Her2 (expressing amino acids M1 through V1255 of accession number NP_004439.2). The subsequent stable cell line was further transduced with a Cignal LXR Luc Reporter (Qiagen, Cat # CLS-7041L). The resulting stable cell line is referred to herein as THP1/Her2/LXR-Luc. The Her2 cell surface expression on THP1/Her2/LXR-Luc cell line was confirmed by FACS (data not shown).
(§3) This example assessed the ability of the LXR agonists provided herein, reference compounds, and anti-Her2 antibody-LXR ncADC to activate LXR. The samples were tested in the THP1/LXR-Luc/Her2 bioassay. For the assay, either THP1/LXR-Luc cells or THP1/LXR-Luc/Her2 cells were seeded onto white 96 well plates at 30,000 cells/well in media containing RPMI supplemented with 10% FBS and pencillin/streptomycin (complete media). Subsequently 3-fold serial dilutions of antibody drug conjugates, unconjugated antibodies, or free payloads were added to the cells at final concentration ranging from 100 nM to 0.01 nM. After 48-hour or 72-hour incubation, luciferase activity was determined after the addition of One-Glo™ reagent (Promega, Cat # E6130) to each well of cells. Relative light units (RLUs) were measured on a Victor luminometer (PerkinElmer) and the EC5o values were determined using a four-parameter logistic equation over a 10-point dose response curve (GraphPad Prism) (FIG. 15). The fold activation is calculated based on the maximum activation of the free payload 9d.

[4] = system: ABCG1; assay: ABCG1 mRNA induction in differentiated THP-1 macrophages (TaqMan); format: cell-based, human; details: THP1 macrophages, 24-hour treatment; magnitude in words
Procedure: (§4) To determine the ability of LXR agonists to activate ABCA1 and ABCG1 genes, the mRNA levels of these two genes in differentiated macrophages was measured. […] Cells were differentiated into macrophages by treatment with 100 nM Phorbol-12 myristate 13-acetate (Sigma, # P8139), which was added to the media described above, for 72 hours. […] Chloroform was then used for phase separation. The aqueous phase, containing total RNA, was purified using MagMAX™-96 for Microarrays Total RNA Isolation Kit (Ambion, Cat # AM1830) and reverse-transcribed into cDNA using SuperScript® VILO™ Master Mix (Invitrogen, Cat #11755050) as per the manufacturer's instructions. TaqMan® was performed using Gene Expression Master Mix, the ABI 7900HT Sequence Detection System (Applied Biosystems) and the primers and probes indicated below in Table 9. The GAPDH gene was used as the internal control gene to normalize any cDNA input differences.

[5] = system: THP1/LXR-Luc cells; assay: THP1/LXR-Luc luciferase reporter bioassay; format: cell-based; details: Homo sapiens, THP-1, 48 hours; for EC50: read-out: Activation of THP1/LXR-Luc cells: EC50; for Emax: relative to maximum activation of free payload 9d, read-out: Activation of THP1/LXR-Luc cells: Fold of activation
Source text: The fold activation in the cell-based assays (as described in Example 68, below) was defined based on the maximum activation of the free payload 9d.
as §2
Additionally, a THP1 cell line was transduced with a Cignal LXR Luc Reporter (Qiagen, Cat # CLS-7041L) without the addition of Her2. The resulting stable cell line is referred to herein as THP1/LXR-Luc. All of the antibodies used in the subsequent bioassays were assessed for their ability to internalize and release a payload on the bioassay cell line used.
as §3

[6] = system: ABCA1; assay: ABCA1 mRNA induction in differentiated THP-1 macrophages (TaqMan); format: cell-based, human; details: THP1 macrophages, 24-hour treatment; magnitude in words
Procedure: as §4

[7] = Water solubility and pH stability of phosphate analogs; format: physicochemical
Source text: The phosphoric acid-analog 17a was obtained from the treatment of phenol 9g with diphosphoryl chloride 18. Compounds 17b and 17c were obtained from the acidic deprotection of 17a with TFA.

[8] = biological target: T3, LXRβ (Homo sapiens, UniProt P55055); details: reported in Bioconjug Chem. 2015 26(11), 2216-22; cited from earlier work
T3 sequence (P55055 1-460): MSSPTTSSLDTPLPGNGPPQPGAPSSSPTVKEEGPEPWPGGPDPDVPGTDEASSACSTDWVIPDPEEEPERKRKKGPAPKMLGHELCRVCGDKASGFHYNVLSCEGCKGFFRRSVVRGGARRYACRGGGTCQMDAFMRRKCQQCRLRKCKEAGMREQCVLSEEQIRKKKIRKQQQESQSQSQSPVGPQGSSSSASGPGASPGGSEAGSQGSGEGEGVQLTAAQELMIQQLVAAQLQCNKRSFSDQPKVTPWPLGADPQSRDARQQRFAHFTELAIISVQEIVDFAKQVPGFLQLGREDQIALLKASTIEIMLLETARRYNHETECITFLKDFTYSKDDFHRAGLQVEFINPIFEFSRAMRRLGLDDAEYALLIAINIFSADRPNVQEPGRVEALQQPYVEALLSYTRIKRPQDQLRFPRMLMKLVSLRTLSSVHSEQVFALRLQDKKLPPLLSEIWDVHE

[9] = biological target: T4, LXRα (Homo sapiens, UniProt Q13133); details: reported in Bioconjug Chem. 2015 26(11), 2216-22; cited from earlier work
T4 sequence (Q13133 1-447): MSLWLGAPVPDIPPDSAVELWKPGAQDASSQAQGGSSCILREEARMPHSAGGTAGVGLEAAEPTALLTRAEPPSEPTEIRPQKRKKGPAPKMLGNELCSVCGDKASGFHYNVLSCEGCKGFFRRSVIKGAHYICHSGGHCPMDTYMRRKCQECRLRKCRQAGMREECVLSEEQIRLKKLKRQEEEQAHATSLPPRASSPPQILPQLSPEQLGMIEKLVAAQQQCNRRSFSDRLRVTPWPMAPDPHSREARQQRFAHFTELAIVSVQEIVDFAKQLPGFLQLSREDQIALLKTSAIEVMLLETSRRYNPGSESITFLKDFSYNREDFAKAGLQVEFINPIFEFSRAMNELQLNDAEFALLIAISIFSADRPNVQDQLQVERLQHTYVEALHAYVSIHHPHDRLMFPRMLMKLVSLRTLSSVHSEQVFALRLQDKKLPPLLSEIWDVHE

[10] = Solubility in water; format: physicochemical; details: H2O
Procedure: To a solution of compound LP2-6 (4.3 mg, 7.8 μmol) in anhydrous DMF (1 mL) was added HATU (3.0 mg, 7.8 μmol). The mixture was stirred at 10° C. for 10 minutes before compound LP2-5 (15 mg, 6.5 μmol) and DIPEA (1.7 mg, 13 μmol) was added. The mixture was stirred at RT for 2 hours until LP2-5 was totally consumed, as monitored by LCMS. […]

[11] = TR-FRET, 12-point curve, read-out: Cell free binding LXRα IC50
[12] = TR-FRET, 12-point curve, read-out: Cell free binding LXRβ IC50

Q: Which IC50 [1, 11] does the source give for `C[C@]1(C(=O)NC(=O)[C@@]2(C)CCC[C@]3(C)c4cc(NC(=O)CN)ccc4CC[C@@H]23)CCC[C@]2(C)c3cc(O)ccc3CC[C@@H]12` [Compound 9h, (1S,4aS,10aR)-6-(2-Aminoacetamido)-N-((1S,4aS,10aR)-6-hydroxy-1,4a-dimethyl-1,2,3,4,4a,9,10,10a-octahydrophenanthrene-1-carbonyl)-1,4a-dimethyl-1,2,3,4,4a,9,10,10a-octahydrophenanthrene-1-carboxamide] here?
A: Its IC50 is under 1 nM.

Q: And the IC50 [2, 12]?
A: The IC50 was under 1 nM.

Q: What about the EC50 ([3]; THP-1, 48 h, 48-hour time point) of the same compound?
A: The EC50 was 0.5 nM.

Q: What about the EC50 ([3]; THP-1, 48 h, 48 hours, unit inferred, values correspond to M) of the same compound?
A: Its EC50 is 0.5 nM.

Q: What about the EC50 ([3]; THP-1, 72 h, 72-hour time point) of the same compound?
A: The EC50 was 0.65 nM.

Q: What about the EC50 ([3]; THP-1, 72 h, 72 hours) of the same compound?
A: The EC50 was 0.65 nM.

Q: And the “ABCG1 induction EC50” value [4]?
A: Its value is “sub-picomolar”.

Q: And the EC50 [5]?
A: Its EC50 is at most 1 nM.

Q: And the Emax [5]?
A: The Emax was over 75%.

Q: What about the “ABCA1 induction EC50” value [6] of the same compound?
A: Its value is “sub-picomolar”.

Q: For `C[C@]1(C(=O)NC(=O)[C@@]2(C)CCC[C@]3(C)c4cc(OP(=O)(O)O)ccc4CC[C@@H]23)CCC[C@]2(C)c3cc(N)ccc3CC[C@@H]12` [Compound 17c, (4bS,8S,8aR)-8-((1S,4aS,10aR)-6-Amino-1,4a-dimethyl-1,2,3,4,4a,9,10,10a-octahydrophenanthrene-1-carbonylcarbamoyl)-4b,8-dimethyl-4b,5,6,7,8,8a,9,10-octahydrophenanthren-3-yl dihydrogen phosphate], which IC50 [1] is on record?
A: The IC50 was over 100 nM.

Q: And the IC50 [2]?
A: The IC50 was under 10 nM.

Q: What about the Stability ([7]; pH as given in the value, 17c converted to 17b in the presence of methanol) of the same compound?
A: The Stability was “not stable at pH 5”.

Q: What about the Solubility in water ([7]; under basic and neutral conditions) of the same compound?
A: The Solubility in water was “soluble in water”.

Q: And the EC50 [5]?
A: The EC50 was at most 1 nM.

Q: And the Emax [5]?
A: Its Emax is over 75%.

Q: With `CCc1cnc2c(C(F)(F)F)cccc2c1-c1cccc(Oc2cccc(S(=O)(=O)N(C)CCN)c2)c1` [Compound 31, N-(2-Aminoethyl)-3-(3-(3-ethyl-8-(trifluoromethyl)quinolin-4-yl)phenoxy)-N-methylbenzenesulfonamide, reference compound] as the compound, how does the “binding affinity to LXRβ” value [8] read?
A: Its value is 12 nM.

Q: And the “binding affinity to LXRα” value [9]?
A: The value was 1.5 nM.

Q: And the IC50 [1, 11]?
A: The IC50 was under 10 nM.

Q: What about the IC50 [2, 12] of the same compound?
A: Its IC50 is under 10 nM.

Q: And the EC50 [5]?
A: Its EC50 is 10 to 100 nM.

Q: What about the Emax [5] of the same compound?
A: The Emax was 25 to 75%.

Q: With `CC(C)[C@H](NC(=O)[C@@H](CCCCNC(=O)COC1CCCCCc2c1nnn2CC1OC2OC3C(CO)OC(OC4C(CO)OC(OC5C(CO)OC(OC6C(CO)OC(OC7C(CO)OC(OC8C(CO)OC(OC9C(CO)OC(OC1C(O)C2O)C(O)C9O)C(O)C8O)C(O)C7O)C(O)C6O)C(O)C5O)C(O)C4O)C(O)C3O)NC(=O)CCOCCOCCOCCOCCNC(=O)CCC(=O)N1Cc2ccccc2C#Cc2ccccc21)C(=O)N[C@@H](C)C(=O)Nc1ccc2c(c1)[C@@]1(C)CCC[C@](C)(C(=O)NC(=O)[C@@]3(C)CCC[C@]4(C)c5cc(O)ccc5CC[C@@H]34)[C@@H]1CC2` (some centres unmarked) [LP32] as the compound, how does the solubility [10] read?
A: Its solubility is 75 µg/mL (≈ 26.3 µM).
